Reference: patent US20070190029A1, “Listeria-induced immunorecruitment and activation, and methods of use thereof” (Cerus Corporation, priority 2005, published 2007)

Experiments:
CT26 tumor cells [1] = experiment: Survival of mice with CT26 hepatic tumors (hemispleen injection model) after attenuated Listeria, with or without CTX; assay type: in vivo, BALB/c mice; conditions: FIG. 1D
Procedure: Hemispleen injections were as follows. BALB/c mice were anaesthetized and the spleen exposed. The spleen was divided into two hemispleens, leaving the vascular pedicles intact. Using a 27 gauge needle, about 0.1 million viable CT26 cells in 0.4 ml HBSS buffer were injected into the spleen, thus allowing cells to flow to the liver. The vascular pedicle draining the cancer-contaminated hemispleen was ligated with a clip, and the CT26-contaminated hemispleen was excised, leaving a functional hemispleen free of tumor cells.
Hepatic tumors were induced in mice as follows. CT26 tumor cells were administered to all mice on day zero (t=0 days) to initiate hepatic tumor formation.
The following concerns the number of doses of Listeria given to the mice. “1×” means that the indicated Listeria strains were administered only at t=3 days post tumor implant (only one dose). “3×” means that the indicated Listeria strains were administered at t=3 days, 6 days, and 9 days. “5×” means that the indicated Listeria strains were administered at t=3 days, 6 days, 9 days, 12 days, and 15 days. The number of administered Listeria ΔactA cells was about 1×10^7 colony forming units (CFU) while the number of Listeria ΔactAΔinlB given was about 2×10^7 CFU (FIG. 1A). […]

CT26 tumor cells [2] = experiment: Long-term adaptive immunity: subcutaneous CT26 re-challenge, Elispot, tumor volume (FIGS. 15, 16); assay type: in vivo, mice
Excerpt: Mice were initially inoculated (t=0 days) with CT26 tumor cells by way of the hemispleen model, and then treated with:
(1) No treatment with any therapeutic agent (“naive mice”);
(2) Listeria ΔactAΔinlB (3 cycles of Listeria ΔactAΔinlB beginning at t=3 days after inoculation with the CT26 tumor cells. Administration of Listeria was once weekly for three weeks. The Listeria ΔactAΔinlB had not been engineered to express any tumor antigen;
(3) GM-CSF vaccine with Listeria ΔactAΔinlB (1 injection of Listeria ΔactAΔinlB at t=6 days). Administration of the GM-CSF vaccine was started three days after injecting the tumor cells in the hemispleen, that is, on days 3, 6, and 10; or
At t=100 days (shortly before the re-challenge) and at t=107 days (post re-challenge), surviving mice in each group were assessed for long-term immunity (Elispot assays) to the immunodominant antigen of the CT26 cells (AH1 antigen). The first Elispot assay (pre re-challenge) served as a baseline assay for use in assessing adaptive immune response. The second Elispot assay (107 days; post re-challenge) was used to assess adaptive immune response. At t=102 days, all mice were inoculated with CT26 tumor cells by way of a subcutaneous re-challenge. […]
Tumor volume was assessed in the days following the CT26 tumor cell re-challenge (FIG. 16). […] The dimensions of these tumors were measured topically.

serum cytokines = experiment: Cytokine concentrations in mouse serum after administering Listeria, poly(I:C), or CpG (Table 7); assay type: in vivo
Procedure: Cytokine levels were measured in serum, where the serum was from blood harvested from mice at various times after administering Listeria or a toll-like receptor (TLR) agonist. The treatment groups were (1) Salt water (HBSS) treatment only (0.2 ml); (2) L. monocytogenes ΔactAΔinlB (1×10^7 bacteria); (3) L. monocytogenes Δhly (deleted in the gene encoding listeriolysin) (3×10^8 bacteria); (4) L. monocytogenes killed but metabolically active (KBMA) (3×10^8 bacteria) (see, e.g. Brockstedt, et al. (2005) Nat. Medicine 11:853-860); (5) heat killed L. monocytogenes ΔactAΔinlB (3×10^8 bacteria); (6) poly(I:C) (0.1 mg); or (7) CpG (0.1 mg). Peripheral blood was withdrawn at various times, and assessed for cytokine concentration (Mouse Cytokine/Chemokine LINCOplex® Kit Catalog # MCYTO-70K; Linco, St. Charles, Mo.; or BD® Cytometric Bead Array, San Jose, Calif.). CpG was CpG ODN 1826, purchased through Invivogen. Cytokine levels were measured on samples withdrawn at 2, 4, 8, 12, and 24 hours after administration of bacteria or TLR agonist.
The cytokines measured included granulocyte-colony stimulating factor (G-CSF); interferon-gamma (IFN-gamma); interleukin-1alpha (IL-1alpha); interleukin-6 (IL-6); interleukin-10 (IL-10); interleukin-12p70 (IL-12p70); interleukin-13 (IL-13); IP-10; KC (mouse ortholog of IL-8); MCP-1; MIP-1α; and TNF.

O=P1(N(CCCl)CCCl)NCCCO1 (stereo not drawn) [CTX, cyclophosphamide]
survival (figure legend) (CT26 tumor cells [1]; CTX at t=4 days, Listeria from day 5, 6 or 7): some increase in survival
survival (CT26 tumor cells [1]; CTX only, 50 mg/kg i.p. day 4, t=50 days): about 60%
Elispot response to AH1 after CT26 re-challenge (CT26 tumor cells [2]; FIG. 15, t=107 days): moderate
mice tumor free following the re-challenge (CT26 tumor cells [2]; subcutaneous re-challenge with 2×10^5 CT26 cells at t=102 days): about 50%

Poly (I:C)
IFN-gamma concentration in mouse serum (serum cytokines; 4-8 h (plateau)): (25-30 pg/ml)
G-CSF concentration in mouse serum (serum cytokines; 8-12 h (peak)): (6,000 pg/ml),
IL-1alpha concentration in mouse serum (serum cytokines; 8-12 h (plateau)): (170-300 pg/ml)
G-CSF concentration in mouse serum (serum cytokines; 2 h): to 1200 pg/ml
IFN-gamma concentration in mouse serum (serum cytokines; 2 h): to 15 pg/ml
IL-6 concentration in mouse serum (serum cytokines; 2 h): (7500 pg/ml)
IL-12p70 concentration in mouse serum (serum cytokines; 2 h): 300 at 2 h pg/ml
IP-10 concentration in mouse serum (serum cytokines; 2 h): to 1400 pg/ml
KC concentration in mouse serum (serum cytokines; 2 h): to 900 pg/ml
MCP-1 concentration in mouse serum (serum cytokines; 2 h): to 29,000 pg/ml
MIP-1a concentration in mouse serum (serum cytokines; 2 h): to 1800 pg/ml
TNF concentration in mouse serum (serum cytokines; 2 h): to 1500 pg/ml
IL-13 concentration in mouse serum (serum cytokines; 2 h-24 h): Basal
IL-6 concentration in mouse serum (serum cytokines; 4 h): (5000 pg/ml
IP-10 concentration in mouse serum (serum cytokines; 4 h (peak)): 4 h (2100 pg/ml),
IL-10 concentration in mouse serum (serum cytokines; 4 h, 12 h, 24 h): 8 h. Basal
IL-13 concentration in mouse serum, sporadic spikes in some mice (serum cytokines; 4 h, 12 h, 24 h): about 200 pg/ml)
KC concentration in mouse serum (serum cytokines; 4 h-24 h): near basal
MCP-1 concentration in mouse serum (serum cytokines; 8 h): (10,000 pg/ml
IL-6 concentration in mouse serum (serum cytokines; 12 h): near basal
MCP-1 concentration in mouse serum (serum cytokines; 12 h and 24 h): (1000 pg/ml)
IP-10 concentration in mouse serum (serum cytokines; 24 h): drop (800 pg/ml
IL-10 concentration in mouse serum (serum cytokines; sporadic spikes found at 2 h and at 8 h): of 14-80 pg/ml
